These results are taken from paper PMC8788362, “Rational design and synthesis of 2-(1H-indazol-6-yl)-1H-benzo[d]imidazole derivatives as inhibitors targeting FMS-like tyrosine kinase 3 (FLT3) and its mutants” (Journal of Enzyme Inhibition and Medicinal Chemistry, 2022).

The target in one data set is T1, FLT3 wild type (Homo sapiens, UniProt P36888).
T1 construct: purchased Reaction Biology Corp. (Kinase HotSpot service)
T1 sequence (P36888 27-993): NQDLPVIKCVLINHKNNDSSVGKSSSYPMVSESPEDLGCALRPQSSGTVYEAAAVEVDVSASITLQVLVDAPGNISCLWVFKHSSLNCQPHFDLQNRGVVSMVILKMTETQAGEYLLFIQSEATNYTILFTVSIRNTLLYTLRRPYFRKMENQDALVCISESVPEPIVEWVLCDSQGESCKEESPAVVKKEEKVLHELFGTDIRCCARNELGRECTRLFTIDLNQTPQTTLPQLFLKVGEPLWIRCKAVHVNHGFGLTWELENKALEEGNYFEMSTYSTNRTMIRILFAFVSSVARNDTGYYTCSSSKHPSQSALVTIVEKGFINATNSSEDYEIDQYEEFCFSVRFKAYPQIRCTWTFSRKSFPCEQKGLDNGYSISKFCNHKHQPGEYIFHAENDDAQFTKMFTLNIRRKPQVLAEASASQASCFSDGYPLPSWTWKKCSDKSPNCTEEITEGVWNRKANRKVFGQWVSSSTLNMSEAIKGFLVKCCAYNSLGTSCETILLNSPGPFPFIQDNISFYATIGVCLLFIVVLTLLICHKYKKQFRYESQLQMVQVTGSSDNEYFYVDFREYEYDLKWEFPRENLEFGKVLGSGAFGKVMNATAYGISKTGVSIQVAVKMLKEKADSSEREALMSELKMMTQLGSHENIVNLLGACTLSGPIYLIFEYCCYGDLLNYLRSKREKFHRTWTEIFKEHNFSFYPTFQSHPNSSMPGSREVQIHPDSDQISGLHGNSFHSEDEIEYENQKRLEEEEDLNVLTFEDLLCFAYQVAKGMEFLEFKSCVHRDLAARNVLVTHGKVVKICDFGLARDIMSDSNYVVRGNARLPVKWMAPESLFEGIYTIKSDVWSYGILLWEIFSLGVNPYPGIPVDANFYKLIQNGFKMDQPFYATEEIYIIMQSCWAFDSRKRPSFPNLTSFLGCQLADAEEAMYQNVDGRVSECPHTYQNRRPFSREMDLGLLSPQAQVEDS
Description: Reaction Biology Kinase HotSpot radiometric kinase assay. It is filed as biochemical. The settings on record: ATP 10 µM; read-out: FLT3 IC50. An excerpt: (§1) (specific activity approx. 500 cpm/pmol, concentration as required).

The target of a further data set is T2, FLT3 (D835Y) (Homo sapiens, UniProt P36888, D835Y).
T2 construct: purchased Reaction Biology Corp. (Kinase HotSpot service)
T2 sequence (P36888 27-993 D835Y): T1 sequence (P36888 27-993) with D809Y
The description is as above. It is filed as biochemical.
Description: as §1

Molecules are shown by their SMILES. Positions count from the first letter of the chain named. “And” between values parts separate entries of the source, which are not always exact repeats. Identical values can stand only once.

As for `CCN1CCN(Cc2cc(C(=O)Nc3ccc4[nH]c(-c5ccc6cn[nH]c6c5)nc4c3)cc(C(F)(F)F)c2)CC1(C)C` [8y, N-(2-(1H-Indazol-6-yl)-1H-benzo[d]imidazol-5-yl)-3-((4-ethyl-3,3-dimethylpiperazin-1-yl)methyl)-5-(trifluoromethyl)benzamide], the melting point lay within 255 to 257 °C. The IC50 at FLT3 wild type stood at 145 nM. Moreover, half-maximal inhibition against FLT3 (D835Y) (IC50) was put at 42 nM.
For `CC(C)(C)c1cc(NC(=O)Nc2ccc3[nH]c(-c4ccc5cn[nH]c5c4)nc3c2)no1` [8l, 1–(2-(1H-Indazol-6-yl)-1H-benzo[d]imidazol-5-yl)-3–(5-(tert-butyl)isoxazol-3-yl)urea], in that order: 184 to 186 °C, 1170 nM and 261 nM.
For `Cc1cn(-c2cc(C(=O)Nc3ccc4[nH]c(-c5ccc6cn[nH]c6c5)nc4c3)cc(C(F)(F)F)c2)cn1` [8b, N-(2-(1H-Indazol-6-yl)-1H-benzo[d]imidazol-5-yl)-3–(4-methyl-1H-imidazol-1-yl)-5-(trifluoromethyl)benzamide], in that order: 239 to 241 °C, 639 nM and 110 nM.
For `COc1ccc(/C=C/C(=O)Nc2ccc3[nH]c(-c4ccc5cn[nH]c5c4)nc3c2)cc1` [8k, (E)-N-(2-(1H-Indazol-6-yl)-1H-benzo[d]imidazol-5-yl)-3–(4-methoxyphenyl)acrylamide], in that order: 206 to 208 °C, 761 nM and 191 nM.
Consider `CN1CCN(c2ccc(C(=O)Nc3ccc4[nH]c(-c5ccc6cn[nH]c6c5)nc4c3)cc2C(F)(F)F)CC1` [8e, N-(2-(1H-Indazol-6-yl)-1H-benzo[d]imidazol-5-yl)-4–(4-methylpiperazin-1-yl)-3-(trifluoromethyl)benzamide], for which the melting point fell in the range of 160 to 161 °C. Further, the IC50 on FLT3 wild type turned out to be 154 nM. In addition, at FLT3 (D835Y), the IC50 was 44 nM.
Turning to `CN1CCCC(Nc2cc(C(=O)Nc3ccc4[nH]c(-c5ccc6cn[nH]c6c5)nc4c3)cc(C(F)(F)F)c2)C1` (stereo not shown) [8v, N-(2-(1H-Indazol-6-yl)-1H-benzo[d]imidazol-5-yl)-3-((1-methylpiperidin-3-yl)amino)-5-(trifluoromethyl)benzamide], the melting point fell in the range of 213 to 214 °C. Besides, at FLT3 wild type, the IC50 turned out to be 107 nM. Besides, the IC50 at FLT3 (D835Y) is 8.86 nM and 9 nM. Also, at FLT3 (D835Y) (ratio of IC50 values), the “fold more potent against FLT3-D835Y than against wild-type FLT3” value is on record as 7- to 12 fold.
With `CC(C)(C)c1cc(C(=O)Nc2ccc3[nH]c(-c4ccc5cn[nH]c5c4)nc3c2)no1` [8h, N-(2-(1H-Indazol-6-yl)-1H-benzo[d]imidazol-5-yl)-5-(tert-butyl)isoxazole-3-carboxamide], the melting point lay within 147 to 149 °C. Further, the IC50 on FLT3 wild type stood at 702 nM. Also, at FLT3 (D835Y), the IC50 came to 82 nM.
For `CN(C)C1CCN(c2cc(C(=O)Nc3ccc4[nH]c(-c5ccc6cn[nH]c6c5)nc4c3)cc(C(F)(F)F)c2)C1` (stereo not shown) [8n, N-(2-(1H-Indazol-6-yl)-1H-benzo[d]imidazol-5-yl)-3–(3-(dimethylamino)pyrrolidin-1-yl)-5-(trifluoromethyl)benzamide], in that order: 283 to 285 °C, 287 nM and 113 nM.
For `CN1CCN(c2cc(C(=O)Nc3ccc4[nH]c(-c5ccc6cn[nH]c6c5)nc4c3)cc(C(F)(F)F)c2)CC1` [8a, N-(2-(1H-Indazol-6-yl)-1H-benzo[d]imidazol-5-yl)-3–(4-methylpiperazin-1-yl)-5-(trifluoromethyl)benzamide], in that order: 228 to 230 °C, 181 nM and 21 nM.
Regarding `O=C(Nc1ccc2[nH]c(-c3ccc4cn[nH]c4c3)nc2c1)c1cc(CN2CCN(C3CC3)CC2)cc(C(F)(F)F)c1` [8q, N-(2-(1H-Indazol-6-yl)-1H-benzo[d]imidazol-5-yl)-3-((4-cyclopropylpiperazin-1-yl)methyl)-5-(trifluoromethyl)benzamide], the melting point was 150 to 152 °C. Further, the IC50 at FLT3 wild type turned out to be 525 nM. The compound also displayed an IC50 against FLT3 (D835Y) of 174 nM.
For `CCN1CCC(Nc2cc(C(=O)Nc3ccc4[nH]c(-c5ccc6cn[nH]c6c5)nc4c3)cc(C(F)(F)F)c2)CC1` [8t, N-(2-(1H-Indazol-6-yl)-1H-benzo[d]imidazol-5-yl)-3-((1-ethylpiperidin-4-yl)amino)-5-(trifluoromethyl)benzamide], in that order: 166 to 168 °C, 285 nM and 87 nM.
For `O=C(Nc1ccc2[nH]c(-c3ccc4cn[nH]c4c3)nc2c1)c1cnn(-c2ccccc2)c1C(F)(F)F` [8g, N-(2-(1H-Indazol-6-yl)-1H-benzo[d]imidazol-5-yl)-1-phenyl-5-(trifluoromethyl)-1H-pyrazole-4-carboxamide], in that order: 258 to 260 °C, 1100 nM and 63 nM.
For `O=C(Nc1ccc(Cl)c(Cl)c1)Nc1ccc2[nH]c(-c3ccc4cn[nH]c4c3)nc2c1` [8m, 1–(2-(1H-Indazol-6-yl)-1H-benzo[d]imidazol-5-yl)-3–(3,4-dichlorophenyl)urea], in that order: 144 to 146 °C, 3580 nM and 1010 nM.
`O=C(Nc1ccc2[nH]c(-c3ccc4cn[nH]c4c3)nc2c1)c1ccc(N2CCOCC2)c(C(F)(F)F)c1` [8f, N-(2-(1H-Indazol-6-yl)-1H-benzo[d]imidazol-5-yl)-4-morpholino-3-(trifluoromethyl)benzamide] displayed a melting point of 202 to 204 °C. For the same compound, the IC50 at FLT3 wild type stood at 2510 nM. This compound showed an IC50 against FLT3 (D835Y) of 370 nM.
The compound `O=C(Nc1ccc2[nH]c(-c3ccc4cn[nH]c4c3)nc2c1)c1cc(N2CCOCC2)cc(C(F)(F)F)c1` [8d, N-(2-(1H-Indazol-6-yl)-1H-benzo[d]imidazol-5-yl)-3-morpholino-5-(trifluoromethyl)benzamide] returned a melting point of 195 to 196 °C. For the same compound, the IC50 on FLT3 wild type came to 1030 nM. The IC50 against FLT3 (D835Y) is 151 nM.
`Cc1nccn1-c1cc(C(=O)Nc2ccc3[nH]c(-c4ccc5cn[nH]c5c4)nc3c2)cc(C(F)(F)F)c1` [8c, N-(2-(1H-Indazol-6-yl)-1H-benzo[d]imidazol-5-yl)-3–(2-methyl-1H-imidazol-1-yl)-5-(trifluoromethyl)benzamide] gave a melting point of 251 to 253 °C. Further, at FLT3 wild type, the IC50 stood at 470 nM. This compound also came in with an IC50 against FLT3 (D835Y) of 108 nM.
Turning to `CN1CCC(Nc2cc(C(=O)Nc3ccc4[nH]c(-c5ccc6cn[nH]c6c5)nc4c3)cc(C(F)(F)F)c2)CC1` [8s, N-(2-(1H-Indazol-6-yl)-1H-benzo[d]imidazol-5-yl)-3-((1-methylpiperidin-4-yl)amino)-5-(trifluoromethyl)benzamide], the melting point lay within 175 to 177 °C. In addition, the IC50 on FLT3 wild type worked out at 158 nM. The IC50 against FLT3 (D835Y) came to 25 nM.
